# Test results as given in ChEMBL document CHEMBL1146961, “Analogues of N-hydroxycinnamoylphenalkylamides as inhibitors of human melanocyte-tyrosinase” (Bioorg Med Chem Lett, 2006).
# System: Rattus norvegicus
# Assay: Toxicity in rat at 2 g/kg, po
# Assay type: organism-based
# Conditions: in vivo, 2000 mg/kg; call rule not given here
row,SMILES,Activity
1,O=C(CCc1ccc(O)c(O)c1)NCCc1ccc(O)cc1,Not Active
2,O=C(/C=C/c1ccc(O)c(O)c1)NCCc1ccc(O)cc1,Not Active
3,O=C(CCc1ccc(O)cc1)NCCc1ccc(O)cc1,Not Active

# System: Radical scavenging activity
# Assay: DPPH radical scavenging activity at 100 uM
# Assay type: functional
# Conditions: not given
row,SMILES,Activity [%]
1,COc1cc(CNC(=O)/C=C/c2ccc(O)c(O)c2)ccc1O,60
2,O=C(/C=C/c1ccc(O)c(O)c1)NCCc1ccc(O)cc1,40
3,O=C(/C=C/c1ccc(O)c(O)c1)NCCc1ccc(O)c(O)c1,60
4,COc1cc(/C=C/C(=O)NCCc2ccc(O)c(O)c2)ccc1O,60
